This is an account of results in US7166618B2, “Nitrosated and nitrosylated cyclooxygenase-2 inhibitors, compositions and methods of use” (NitroMed, Inc., priority 1999, dated 2007).

“Also recorded” adds a separate entry of the source.

Test [1] deals with carrageenan-induced rat paw edema. Description: Carrageenan-induced rat paw edema test. The class given is in vivo. The following applies: rats dosed intragastrically, paw volume 3 hours after carrageenan. As for the experimental part:
The carrageenan-induced rat paw edema test was used to measure antiinflammatory activity. The paw edema test was performed according to the method of Winter et al, Proc. Soc. Exp. Biol. Med. 111: 544–547, 1962. Male Sprague-Dawley rats (200–250 g) were fasted for 24 hours with water ad libitum. The rats were dosed intragastrically with test compounds in a volume of 5 mL/kg. One hour after dosing the paw volume was measured. Then each rat received a subplantar injection of 50 μl of 1% suspension of carrageenan. Three hours later, the paw volume was measured and compared with the initial volume measured […]. The increase in paw volume is presented as the mean±SEM for 5 rats per group. Data were analyzed by performing an ANOVA test followed by a Student-Keuls post hoc test.

Test [2] concerns rat aortic smooth muscle rings. Description: Relaxation of phenylephrine-contracted rat aortic smooth muscle rings. The following applies: rings precontracted with 10 μM phenylephrine; for relaxation of aortic smooth muscle ring: 100 nM to 100 μM test compound; for relaxation compared with reference NO donor (ISDN or GSNO): comparator as in the value. On the procedure:
Male Sprague-Dawley rats (Charles River Laboratories (Wilmington, Mass.) were euthanized by intraperiton injection of a high dose of sodium pentobarbitone (80–100 mg/kg). The thoracic aorta was rapidly excised and immediately placed in a Petri dish containing warm (37° C.) oxygenated (95% O2 and 5% CO2) Kreb's buffer (composition per millimolar: NaCl (119); KCl (4.69); CaCl2.H2O (2.52); MgSO4.7H2O (0.57); NaHCO3 (25); NaH2PO4.H2O (1.01) and glucose (11.1). Under a stereoscopic dissecting microscope, the aorta was cleaned, freed from adhering fat and connective tissues. The tissue was cut into ring segments, each approximately 2–3 mm in length.
For experiments to measure relaxation of the tissue under various conditions, a stainless steel tissue holder and an U-shaped stainless steel wire were inserted into the lumen of the aortic ring. The tissue holder anchored the ring at the bottom of the organ bath whereas the end of the U-shaped steel wire was tied with fine silk thread so that it connected to the FT-202 transducer. The tissue holder and the steel wire along with the aortic ring were then suspended in a 5-mL double-jacketed temperature-controlled glass organ bath (Radnoti Glass Technology, Inc., Monrovia, Calif.) filled with fresh Kreb's buffer. A mixture of 95% O2 and 5% CO2 was bubbled through a porous sintered disc at the bottom of the bath. The rings were given an initial resting tension of 1.5 g and the preparation was allowed to equilibrate at the initial tension for about 90 minutes. During this equilibration period, the bath fluid was changed every 15 minutes and replaced with fresh prewarmed (37° C.) Kreb's buffer. The isometric tension of the aortic muscle at rest and its response to different stimuli were recorded on a Power Macintosh 6100 computer via a MacLab 8/S computer interface (CB Sciences, Inc, Milford, Mass.) after an initial amplification through a low-noise ETH-400 bioamplifier (CB Sciences, Inc, Milford, Mass.). Contractile responsiveness of the tissue strips was established with 10 μM phenylephrine and the strips were incubated with the drug for 20 minutes to establish a steady level of contraction. To test the relaxation effects, test compounds were added to the phenylephrine-precontracted strips in the tissue bath at cumulative concentrations of 0.1 μM to 0.1 mM. Concentration of test compounds was increased only after relaxation at the previous concentration had reached a plateau level.

Test [3] concerns the target T1, ovine COX-1 (Ovis aries, UniProt P05979).
T1 sequence (P05979 25-600): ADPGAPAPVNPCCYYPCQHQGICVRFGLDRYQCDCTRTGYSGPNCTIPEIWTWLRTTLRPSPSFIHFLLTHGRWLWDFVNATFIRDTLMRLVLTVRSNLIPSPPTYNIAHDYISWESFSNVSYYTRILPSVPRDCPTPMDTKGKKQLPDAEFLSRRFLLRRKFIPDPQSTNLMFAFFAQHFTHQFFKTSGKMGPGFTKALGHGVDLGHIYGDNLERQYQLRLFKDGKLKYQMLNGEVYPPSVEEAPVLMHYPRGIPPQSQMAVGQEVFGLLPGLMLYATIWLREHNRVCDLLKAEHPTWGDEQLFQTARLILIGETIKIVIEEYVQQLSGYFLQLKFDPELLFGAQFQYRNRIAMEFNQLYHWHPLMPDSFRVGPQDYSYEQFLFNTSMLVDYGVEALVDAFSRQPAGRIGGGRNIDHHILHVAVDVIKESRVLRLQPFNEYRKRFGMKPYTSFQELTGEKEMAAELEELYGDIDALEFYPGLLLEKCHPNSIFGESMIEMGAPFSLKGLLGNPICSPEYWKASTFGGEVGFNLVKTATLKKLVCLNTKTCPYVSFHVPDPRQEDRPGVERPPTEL
Description: biochemical. As to conditions: for IC50: ovine COX-1. As for the experimental part:
(§1) The ovine COX-1 and COX-2 activities and the measurement of the prostaglandin products synthesized were performed using the COX Inhibitor Screening Assay (Cayman Chemical, Ann Arbor, Mich., which also contained the Prostaglandin Screening EIA Kit, used for prostaglandin quantification). The test compounds were dissolved at 50 times the highest final reaction concentration in DMSO or any other suitable solvent as stock solutions. These stock solutions were then diluted in the same solvent. Eight glass test tubes (13×100 mm) were placed in a 37° C. water bath. To each test tube was added 950 μL of reaction buffer (0.1 M Tris-HCl, pH 8.0, containing 5 mM EDTA, and 2 mM phenol), 10 μL of 100 µM heme solution, and 10 μL (5 units) of either ovine COX-1 or COX-2 and the resulting mixture was incubated with the enzyme for 2 minutes. Twenty μL of the solvent was added to one tube (100% initial activity or solvent control) and 20 μL of each dilution of the test compound was added to one tube each. Each tube was vortexed immediately after the addition. The enzyme was incubated with the inhibitor for 3.5 minutes at 37° C. The enzymatic reaction was then initiated by the addition of 10 μL of freshly prepared 10 mM arachidonic acid (neutralized with KOH), vortexed and then incubated for 2 minutes at 37° C. The reaction was terminated by the addition of 50 μL of 1 M HCl, vortexed and placed at room temperature. One hundred microliters of a saturated stannous chloride solution (50 mg/mL of 0.1 M HCl) was added and the reaction mixture was allowed to stand at room temperature for at least 5 minutes.
(§2) The prostaglandins (PG) produced in the reactions were assayed, after a 2,000-fold dilution, using the Prostaglandin Screening EIA Kit (Cayman Chemical, Ann Arbor, Mich.). The assay-contains an antibody with broad specificity for all the prostaglandin families (PGF, PGE, PGD, and thromboxane B-type) synthesized in the COX-1/COX 2 reactions. The synthesized prostaglandin competes with a PG-tagged acetylcholine esterase tracer for binding to the PG antibody. Binding of synthesized PG lowers the calorimetric development of the Ellman's Reagent (computed as % B/B0). The actual amount of synthesized PG was interpolated from a standard curve using known amounts of supplied prostaglandin E2 (PGE2) (PGE2 concentration vs. % B/B0). The data generated were the mean±standard deviation of triplicate wells in the EIA for a single reaction at a given inhibitor concentration.

Test [4] addresses T2, ovine COX-2 (Ovis aries, UniProt P79208).
T2 sequence (P79208 17-603): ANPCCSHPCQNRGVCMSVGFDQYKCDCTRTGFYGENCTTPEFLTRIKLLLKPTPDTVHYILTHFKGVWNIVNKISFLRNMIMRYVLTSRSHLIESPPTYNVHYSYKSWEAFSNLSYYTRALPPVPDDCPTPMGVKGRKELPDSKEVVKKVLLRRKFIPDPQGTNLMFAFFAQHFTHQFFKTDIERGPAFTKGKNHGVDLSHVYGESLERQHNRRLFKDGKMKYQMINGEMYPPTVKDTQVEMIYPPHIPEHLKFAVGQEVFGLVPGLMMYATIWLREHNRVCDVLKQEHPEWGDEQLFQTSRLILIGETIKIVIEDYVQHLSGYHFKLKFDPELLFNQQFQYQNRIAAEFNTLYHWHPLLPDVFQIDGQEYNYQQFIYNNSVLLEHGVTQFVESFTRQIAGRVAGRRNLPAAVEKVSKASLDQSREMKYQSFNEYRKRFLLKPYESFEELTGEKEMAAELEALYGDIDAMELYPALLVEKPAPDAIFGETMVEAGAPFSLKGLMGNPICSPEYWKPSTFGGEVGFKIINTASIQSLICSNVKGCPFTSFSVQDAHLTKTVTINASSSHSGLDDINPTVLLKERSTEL
Description: biochemical. The class given is biochemical. The following applies: for IC50: ovine COX-2, read-out: COX-2 IC50. As for the experimental part:
as §1, §2

Regarding `Cc1ccc(-c2cc(C(F)(F)F)nn2-c2ccc(S(N)(=O)=O)cc2)cc1` [Celecoxib, 4-(5-(4-methylphenyl)-3-(trifluoromethyl)-1H-pyrazol-1-yl)benzenesulfonamide], in test [1], the “paw volume (antiinflammatory activity)” value is “reduced the paw volume”.
Broadly, the IC50 is the concentration that gives 50% inhibition. For `NS(=O)(=O)c1ccc(-n2nc(CO[N+](=O)[O-])cc2-c2ccc(Cl)cc2)cc1` [Example 1b, 4-(5-(4-Chlorophenyl)-3-((nitrooxy)methyl)-3-hydropyrazolyl) benzenesulfonamide], in test [2], the “relaxation of aortic smooth muscle ring” value is “induced the relaxation of the aortic ring” and the “relaxation compared with reference NO donor (ISDN or GSNO)” value is reported as “more potent than that obtained by the nitrate compound, isosorbide dinitrate”. Moreover, half-maximal inhibition in test [3] (IC50) was put at 190 µM. In addition, the IC50 in test [4] was found to be 10 µM.
The inhibition is the percentage by which the read-out fell short of the control. A lower inhibition goes with little suppression. Regarding `NS(=O)(=O)c1ccc(-c2c(-c3ccccc3)noc2CO)cc1` [Example 2a, 4-(5-(Hydroxymethyl)-3-phenylisoxazol-4-yl)benzenesulfonamide, reference compound], the “paw volume (antiinflammatory activity)” value in test [1] was “reduced the paw volume”. The “relaxation of aortic smooth muscle ring” value in test [2] was “did not relax the tissue; also recorded: did not relax the aortic ring”. The compound further gave an inhibition at 100 µM in test [3] (Ovine COX-1 (footnote a), at 100 μM) of 0%. In test [3], this compound came in with an IC50 greater than 300 µM.
For `Cc1onc(-c2ccccc2)c1-c1ccc(S(=O)(=O)NC(=O)CCC(=O)OCCC2(SN=O)CCN(C)CC2)cc1.O=C(O)CC(O)(CC(=O)O)C(=O)O` [Example 3g, 2-(1-Methyl-4-(nitrosothio)-4-piperidyl)ethyl 3-(N-((4-(5-methyl-3-phenylisoxazol-4-yl)phenyl)sulfonyl)carbamoyl)propanoate Citrate Salt], the “relaxation of aortic smooth muscle ring” value in test [2] is listed as “induced the relaxation of the aortic ring”. Further, in test [2] (Citrate Salt), the “relaxation compared with reference NO donor (ISDN or GSNO)” value is “comparable to that obtained with GSNO”. In addition, the 50% inhibitory concentration (IC50) in test [3] was greater than 300 µM; in test [4], 70 µM. Moreover, the “COX-2 inhibition potency compared with the parent compound” value in test [4] (ovine enzymes, from Table 1) was “not as potent as the parent non-nitrosylated compound”.
On to `CS(=O)(=O)c1ccc(-c2nc3cc(CO)ccn3c2-c2ccc(F)cc2)cc1` [Example 5a, 1-(3-(4-Fluorophenyl)-7-(hydroxymethyl)(3a-hydroimidazolo(1,2-a)pyridin-2-yl))-4-(methylsulfonyl)benzene, reference compound], for which the values for the 50% inhibitory concentration (IC50) in test [3] and in test [4] were greater than 300 µM and 12 µM, respectively.
